Columns and labels:
Type in all cases: functional
RAW264.7 [1] = experiment: Immunosuppressive activity in LPS-treated mouse RAW264.7 cells assessed as inhibition of TNF-alpha level at 40 uM incubated for 24 hrs by ELISA analysis relative to control
RAW264.7 [2] = experiment: Immunosuppressive activity in LPS-treated mouse RAW264.7 cells assessed as inhibition of MCP-1 level at 40 uM incubated for 24 hrs by ELISA analysis relative to control
RAW264.7 [3] = experiment: Immunosuppressive activity in LPS-treated mouse RAW264.7 cells assessed as inhibition of IL-6 level at 40 uM incubated for 24 hrs by ELISA analysis relative to control
Jurkat [4] = experiment: Immunosuppressive activity in PMA and PHA activated human Jurkat cells assessed as inhibition of IL-2 level at 40 uM incubated for 48 hrs by ELISA analysis relative to control
Jurkat [5] = experiment: Immunosuppressive activity in PMA and PHA activated human Jurkat cells assessed as inhibition of IL-2 level at 20 uM incubated for 48 hrs by ELISA analysis relative to control
RAW264.7 [6] = experiment: Immunosuppressive activity in LPS-treated mouse RAW264.7 cells assessed as inhibition of IL-6 level at 20 uM incubated for 24 hrs by ELISA analysis relative to control
[7] = Immunosuppressive activity in anti-CD3/CD28 stimulated C57BL/6 mouse T cell line assessed as inhibition of IFN-gamma level at 20 uM incubated for 48 hrs by ELISA analysis relative to control; settings: C57BL/6, T-cell
RAW264.7 [8] = experiment: Immunosuppressive activity in LPS-treated mouse RAW264.7 cells assessed as inhibition of TNF-alpha level at 1 uM incubated for 24 hrs by ELISA analysis relative to control
RAW264.7 [9] = experiment: Immunosuppressive activity in LPS-treated mouse RAW264.7 cells assessed as inhibition of MCP-1 level at 1 uM incubated for 24 hrs by ELISA analysis relative to control
[10] = Immunosuppressive activity in anti-CD3/CD28 stimulated C57BL/6 mouse T cell line assessed as inhibition of IFN-gamma level at 0.1 uM incubated for 48 hrs by ELISA analysis relative to control; settings: C57BL/6, T-cell
Jurkat [11] = experiment: Immunosuppressive activity in PMA and PHA activated human Jurkat cells assessed as inhibition of IL-2 level at 0.1 uM incubated for 48 hrs by ELISA analysis relative to control

SMILES | inhibition at 40 µM (RAW264.7 [1]) | inhibition at 40 µM (RAW264.7 [2]) | inhibition at 40 µM (RAW264.7 [3]) | inhibition at 40 µM (Jurkat [4]) | inhibition at 20 µM (RAW264.7 [6]) | inhibition at 20 µM [7] | other results
CC(=O)O[C@H]1C[C@H](C)[C@H]2C(=O)C3=C([C@H](C)[C@H]21)[C@@]1(CC[C@H](C)O1)O[C@]3(C)CC[C@@H]1OC(=O)C=C1C | 52.5% | 32.2% | 10.4% | < 10% | – | – | –
CC(=O)O[C@H]1C[C@H](C)[C@H]2C(=O)C3=C(/C(=C/C(C)C)O[C@]3(C)CCc3occc3C)[C@H](C)[C@H]21 | 24.3% | 31.9% | < 10% | 21.1% | – | – | –
Cc1ccoc1CC[C@]1(C)O[C@@]2(CC(C)CCl)O[C@H]3C[C@H](C)[C@H]4C(=O)[C@@H]1[C@]2(O)[C@H](C)[C@H]43 (some centres not stated) | – | – | – | – | 38.6% | 67.4% | inhibition at 20 µM (Jurkat [5]): 33.1%
Cc1ccoc1CC[C@]1(C)O[C@@]2(CCC(C)Cl)O[C@H]3C[C@H](C)[C@H]4C(=O)[C@@H]1[C@]2(O)[C@H](C)[C@H]43 (some centres not stated) | – | – | – | – | 45.6% | 61.2% | –
C/C=C/C[C@@H](C)[C@@H](O)[C@H]1C(=O)N[C@@H](CC)C(=O)N(C)CC(=O)N(C)[C@@H](CC(C)C)C(=O)N[C@@H](C(C)C)C(=O)N(C)[C@@H](CC(C)C)C(=O)N[C@@H](C)C(=O)N[C@H](C)C(=O)N(C)[C@@H](CC(C)C)C(=O)N(C)[C@@H](CC(C)C)C(=O)N(C)[C@@H](C(C)C)C(=O)N1C [CYCLOSPORINE] | – | – | – | – | – | – | inhibition at 1 µM (RAW264.7 [8]): 70.8%; inhibition at 1 µM (RAW264.7 [9]): 66%
C[C@@H]1C[C@H]2[C@@H]3CCC4=CC(=O)C=C[C@]4(C)[C@@]3(F)[C@@H](O)C[C@]2(C)[C@@]1(O)C(=O)CO [DEXAMETHASONE] | – | – | – | – | – | – | inhibition at 0.1 µM [10]: 98.3%; inhibition at 0.1 µM (Jurkat [11]): 98.9%

Reference: ChEMBL document CHEMBL5390276, “Discovery of Unusual Sesterterpenoids from Colquhounia coccinea var. mollis and Their Metabolic Implications” (2023)
